Assay results taken from US20220088016A1, “CANCER TREATMENT USING MULTI-TARGETED KINASE INHIBITOR IN COMBINATION OF PROTEIN KINASE BIOMARKERS” (ZHEJIANG CROWNMAB BIOTECH CO. LTD., priority 2019, published 2022).
Read-outs that look alike come from different tables or passages of the source.

Assays:
M-NFS-60 cells = assay: Proliferation of M-NFS-60 cells (CTG assay); assay type: cell-based, mouse; settings: M-NFS-60 (CSF-1 dependent), 3 days
Experimental: (§1) Two syngeneic cell lines M-NFS-60 and RAW264.7 and engineered BaF3 hCSFIR cell line were starved and then tested with CBT-102 and other test articles for 3 days in the temperature of 37° C., 5% CO2 and 95% humidity. The cell viability was then detected using CTG assay. The software of GraphPad Prism was used to calculate IC50.
(§2) CSF-1 dependent mouse myeloid M-NFS-60 cells were employed as target cells while a CSF-1 independent cell line Raw 264.7 was used as a negative control. In addition to CBT-102, the study also included 3 CSF-1R inhibitors: GW2580, BLZ945 and Pexidartinib.

RAW264.7 cells = assay: Proliferation of RAW264.7 cells (CTG assay); assay type: cell-based; settings: RAW264.7 (CSF-1 independent, negative control), 3 days
Experimental: as §1, §2

BaF3 hCSF1R cell line = assay: Proliferation of engineered BaF3 hCSF1R cell line (CTG assay); assay type: cell-based
Experimental: as §1, §2

| SMILES | Max inh. (M-NFS-60 cells) [%] | IC50 (M-NFS-60 cells; Mus musculus, 72 h) [nM] | IC50 (RAW264.7 cells; Mus musculus, 72 h) [nM] | Max inh. (RAW264.7 cells) [%] | IC50 (M-NFS-60 cells) [nM] | IC50 (RAW264.7 cells) [nM] | IC50 (BaF3 hCSF1R cell line; engineered BaF3 hCSF1R, 3 days, CTG, read-out: IC50) [nM] | IC50 (BaF3 hCSF1R cell line; Mus musculus, BaF3, 72 h) [nM] |
| --- | --- | --- | --- | --- | --- | --- | --- | --- |
| CNC(=O)c1cc(Oc2ccc3nc(N[C@@H]4CCCC[C@H]4O)sc3c2)ccn1 [BLZ945] | 99.08 | 3020 | > 30000 | 24.65 |  |  |  |  |
| COc1ccc(COc2ccc(Cc3cnc(N)nc3N)cc2OC)cc1 [GW2580] | 99.02 |  |  | 81.91 | 1140 | 4060 | 279 |  |
| FC(F)(F)c1ccc(CNc2ccc(Cc3c[nH]c4ncc(Cl)cc34)cn2)cn1 [PLX3397] | 99.32 | 348 | 16400 | 95.16 |  |  |  |  |
| Cc1cc2cc(Oc3ccnc(Nc4cccc(CS(=O)(=O)NCCN(C)C)c4)n3)ccc2[nH]1 [sulfatinib] |  |  |  |  |  |  |  | 1330 |
